Source: PubChem BioAssay (NCI)
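Exposure lasted 48 hours, with cells grown in 96-well plates and compounds tested at five concentrations. At the TGI there is no net growth.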

What was measured:
Test in all cases: DTP human tumour cell line panel, 48 h
[1] = test system: 786-0 renal
[2] = test system: A498 renal
[3] = test system: A549 NSCLC
[4] = test system: ACHN renal
[5] = test system: BT-549 breast
[6] = test system: CAKI-1 renal
[7] = test system: CCRF-CEM leukemia
[8] = test system: COLO 205 colon
[9] = test system: DU-145 prostate
[10] = test system: EKVX NSCLC
[11] = test system: HCC-2998 colon
[12] = test system: HCT-116 colon
[13] = test system: HCT-15 colon
[14] = test system: HL-60(TB) leukemia
[15] = test system: HOP-62 NSCLC
[16] = test system: HOP-92 NSCLC
[17] = test system: HS 578T breast
[18] = test system: HT29 colon
[19] = test system: IGROV1 ovarian
[20] = test system: K-562 leukemia
[21] = test system: LOX IMVI melanoma
[22] = test system: M14 melanoma
[23] = test system: MALME-3M melanoma
[24] = test system: MCF7 breast
[25] = test system: MDA-MB-231 breast
[26] = test system: MDA-MB-435
[27] = test system: MDA-N
[28] = test system: MOLT-4 leukemia
[29] = test system: NCI-H226 lung
[30] = test system: NCI-H23 lung
[31] = test system: NCI-H460 lung
[32] = test system: NCI-H522 lung
[33] = test system: NCI/ADR-RES ovarian
[34] = test system: OVCAR-3 ovarian
[35] = test system: OVCAR-4 ovarian
[36] = test system: OVCAR-5 ovarian
[37] = test system: OVCAR-8 ovarian
[38] = test system: RPMI-8226 leukemia
[39] = test system: RXF 393 renal
[40] = test system: SF-268 CNS
[41] = test system: SF-295 CNS
[42] = test system: SF-539 CNS
[43] = test system: SK-MEL-2 melanoma
[44] = test system: SK-MEL-28 melanoma
[45] = test system: SK-MEL-5 melanoma
[46] = test system: SK-OV-3 ovarian
[47] = test system: SN12C renal
[48] = test system: SNB-19 CNS
[49] = test system: SNB-75 CNS
[50] = test system: SR leukemia
[51] = test system: SW-620 colon
[52] = test system: T-47D breast
[53] = test system: TK-10 renal
[54] = test system: U251 CNS
[55] = test system: UACC-257 melanoma
[56] = test system: UACC-62 melanoma
[57] = test system: UO-31 renal
[58] = test system: KM12 colon
[59] = test system: PC-3 prostate

`COc1ccc(-c2cc(=O)c3c(OC)c(OC)c(OC)c(OC)c3o2)c(OC)c1` showed a TGI [1] greater than 100 µM, a TGI [2] of 76.1 µM and a TGI [3] greater than 100 µM. The TGI [4] was 84.8 µM, the TGI [5] was greater than 100 µM and the TGI [6] was 81.9 µM. For the same compound, the TGI [7] was greater than 100 µM, the TGI [8] was 34.3 µM and the TGI [9] was greater than 100 µM. For the same compound, the TGI [10] was greater than 100 µM, the TGI [11] was 46.6 µM and the TGI [12] was 49.5 µM. For the same compound, the TGI [13] was 86.1 µM, the TGI [14] was greater than 100 µM and the TGI [15] was 70.6 µM. For the same compound, the TGI [16] was 55.3 µM, the TGI [17] was 49.4 µM and the TGI [18] was 68.5 µM. The TGI [19] was greater than 100 µM, the TGI [20] was greater than 100 µM and the TGI [21] was 34.8 µM. It also gave a TGI [22] of 46.7 µM, a TGI [23] greater than 100 µM and a TGI [24] of 44 µM. The TGI [25] was greater than 100 µM, the TGI [26] was 89.7 µM and the TGI [27] was greater than 100 µM. It also gave a TGI [28] of 86.1 µM, a TGI [29] greater than 100 µM and a TGI [30] of 58.5 µM. It also gave a TGI [31] greater than 100 µM, a TGI [32] of 29.1 µM and a TGI [33] of 67.3 µM. For the same compound, the TGI [34] was 53.7 µM, the TGI [35] was 94.4 µM and the TGI [36] was greater than 100 µM. For the same compound, the TGI [37] was greater than 100 µM, the TGI [38] was greater than 100 µM and the TGI [39] was 99.7 µM. It also gave a TGI [40] greater than 100 µM, a TGI [41] of 46 µM and a TGI [42] greater than 100 µM. It also gave a TGI [43] of 39.2 µM, a TGI [44] greater than 100 µM and a TGI [45] of 55.8 µM. It also gave a TGI [46] greater than 100 µM, a TGI [47] of 62.6 µM and a TGI [48] greater than 100 µM. For the same compound, the TGI [49] was greater than 100 µM, the TGI [50] was greater than 100 µM and the TGI [51] was greater than 100 µM. It also gave a TGI [52] of 59.5 µM, a TGI [53] greater than 100 µM and a TGI [54] greater than 100 µM. For the same compound, the TGI [55] was 49.5 µM, the TGI [56] was 33 µM and the TGI [57] was 62.8 µM.

`CCOC(=O)C(C(=O)OCC)=C1NC2(c3ccccc3Nc3ccc(C)cc32)C(C(=O)OC)S1` (stereo not given) was tested, and the TGI [1] was greater than 100 µM, the TGI [2] was greater than 100 µM and the TGI [3] was greater than 100 µM. For the same compound, the TGI [4] was greater than 100 µM, the TGI [5] was greater than 100 µM and the TGI [6] was greater than 100 µM. It also gave a TGI [7] greater than 100 µM, a TGI [8] of 57.9 µM and a TGI [9] greater than 100 µM. For the same compound, the TGI [10] was 80.9 µM, the TGI [11] was greater than 100 µM and the TGI [12] was greater than 100 µM. The TGI [13] was greater than 100 µM, the TGI [14] was greater than 100 µM and the TGI [15] was greater than 100 µM. For the same compound, the TGI [16] was 44.4 µM, the TGI [17] was 69.2 µM and the TGI [18] was greater than 100 µM. For the same compound, the TGI [19] was greater than 100 µM, the TGI [20] was greater than 100 µM and the TGI [58] was greater than 100 µM. It also gave a TGI [21] greater than 100 µM, a TGI [22] greater than 100 µM and a TGI [23] of 63.5 µM. For the same compound, the TGI [24] was greater than 100 µM, the TGI [26] was greater than 100 µM and the TGI [27] was greater than 100 µM. It also gave a TGI [28] greater than 100 µM, a TGI [29] greater than 100 µM and a TGI [30] greater than 100 µM. The TGI [31] was greater than 100 µM, the TGI [32] was greater than 100 µM and the TGI [33] was greater than 100 µM. It also gave a TGI [34] greater than 100 µM, a TGI [35] greater than 100 µM and a TGI [36] greater than 100 µM. It also gave a TGI [37] greater than 100 µM, a TGI [59] greater than 100 µM and a TGI [38] greater than 100 µM. The TGI [39] was 70.6 µM, the TGI [40] was greater than 100 µM and the TGI [41] was greater than 100 µM. The TGI [42] was greater than 100 µM, the TGI [43] was 63.1 µM and the TGI [44] was greater than 100 µM. The TGI [45] was 66.9 µM, the TGI [46] was greater than 100 µM and the TGI [47] was 18.2 µM. For the same compound, the TGI [48] was greater than 100 µM, the TGI [49] was 62.4 µM and the TGI [50] was greater than 100 µM. For the same compound, the TGI [51] was greater than 100 µM, the TGI [52] was 67.2 µM and the TGI [53] was greater than 100 µM. It also gave a TGI [54] greater than 100 µM, a TGI [55] greater than 100 µM and a TGI [56] greater than 100 µM. It also gave a TGI [57] greater than 100 µM.
